From patent EP0418591B1 (priority 1989, dated 1991)
Like-named read-outs stand apart in the source and are kept apart here. Marks after values point to notes of the source that are not given here.

Key:
[1] = target: T1, Delta opiate binding sites (Rattus norvegicus, UniProt P33533); design: species or system Sprague-Dawley rats
T1 construct: from tissue; host or cells: rat brain minus cerebellum, twice-washed P2 membrane fraction

[2] = target: T2, Mu opiate binding sites (Rattus norvegicus, UniProt P33535); design: species or system Sprague-Dawley rats
T2 construct: from tissue; host or cells: rat brain minus cerebellum, twice-washed P2 membrane fraction
T2 sequence (P33535 whole entry): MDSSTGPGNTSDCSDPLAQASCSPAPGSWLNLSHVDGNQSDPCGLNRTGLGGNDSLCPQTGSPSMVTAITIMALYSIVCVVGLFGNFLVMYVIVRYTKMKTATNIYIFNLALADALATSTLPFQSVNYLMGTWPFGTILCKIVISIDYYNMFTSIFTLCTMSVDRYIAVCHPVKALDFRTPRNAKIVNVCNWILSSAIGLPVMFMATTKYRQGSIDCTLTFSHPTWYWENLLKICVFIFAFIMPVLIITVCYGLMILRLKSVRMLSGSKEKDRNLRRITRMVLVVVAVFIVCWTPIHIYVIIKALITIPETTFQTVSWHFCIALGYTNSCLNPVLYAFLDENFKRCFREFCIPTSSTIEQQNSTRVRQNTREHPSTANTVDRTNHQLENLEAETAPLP

[3] = system: Cough in Guinea Pigs; design: species or system Dunkin Hartley guinea pigs; conditions: guinea pig, in vivo

T1 sequence (P33533 whole entry): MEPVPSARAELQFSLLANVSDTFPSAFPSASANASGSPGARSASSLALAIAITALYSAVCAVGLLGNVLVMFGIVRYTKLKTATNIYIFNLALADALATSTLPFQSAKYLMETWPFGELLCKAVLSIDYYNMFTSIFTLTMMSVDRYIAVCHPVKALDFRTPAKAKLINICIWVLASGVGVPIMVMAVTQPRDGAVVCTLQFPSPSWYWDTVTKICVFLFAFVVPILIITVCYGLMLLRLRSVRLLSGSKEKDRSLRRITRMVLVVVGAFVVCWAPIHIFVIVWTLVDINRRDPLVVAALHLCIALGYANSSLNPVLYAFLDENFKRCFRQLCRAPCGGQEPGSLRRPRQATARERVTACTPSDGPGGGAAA

SMILES	IC50 ([1]; read-out: IC₅₀ Delta)	Ki ([1]; read-out: Ki Delta)	IC50 ([2]; read-out: IC₅₀ Mu)	Ki ([2]; read-out: Ki Mu)	inhibition of cough [3]	% Inhibition of Coughing 5 min ([3]; po)	% Inhibition of Coughing 10 min ([3]; po)	% Inhibition of Coughing 5 min ([3]; sc)	% Inhibition of Coughing 10 min ([3]; sc)
CC(C)C[C@H](NC(=O)[C@H](Cc1ccccc1)NC(=O)CNC(=O)[C@H](NC(=O)[C@@H](N)Cc1ccc(O)cc1)[C@H](C)O)C(=O)N[C@H](C(=O)O)[C@@H](C)O [DTLET, D-Thr²-Leu-Enkephalin-Thr]	2.7 nM	1.2 nM	184 nM	105 nM	–	–	–	–	–
COc1ccc2c3c1O[C@H]1[C@@H](O)C=C[C@H]4[C@@H](C2)N(C)CC[C@@]341 [(-)-codeine]	–	–	–	–	46%	42.7*** %	38.7*** %	46.2*** %	46.1*** %
